Test results as given in patent US7993681B2, “Methods, compositions and devices for inducing stasis in tissues and organs” (Fred Hutchinson Cancer Research Center, priority 2003, dated 2011).

Assays:
human keratinocytes = assay: Preservation of human skin in carbon monoxide, keratinocyte colony formation; format: cell-based
Method: Three human foreskins were obtained for this purpose. The foreskin tissue was preserved in keratinocyte growth medium (KGM) containing insulin, EGF (0.1 ng/ml), hydrocortisone ([…]) and bovine pituitary extract (approx. 50 micrograms/ml of protein). Foreskins were rinsed in PBS, and excess fatty tissue was removed. Each foreskin sample was divided into 2 equal pieces. Each piece was placed into a separate container containing a solution of PBS with 24 mg/ml of Dispase II (from Bacillus Polymyxa EC 3.4.24.4:Roche Diagnostics Corp., Indianapolis, Ind.). One container (containing a foreskin piece in PBS with Dispase II) was kept in a humid chamber in a fume hood. The other container (with the other half of the foreskin in PBS with Dispase II) was placed in the same fume hood in an environmental chamber perfused with humidified 100% CO. Both samples were maintained at room temperature for 24 hrs. Methods used to establish defined atmospheric conditions were identical to those used in Example 1.
Following the 24 hr exposure to normoxia or 100% CO, keratinocytes were isolated from the foreskins according to the method described by Boyce et al. (1983; 1985; each of which is incorporated herein by reference in its entirety). Briefly, the epidermis from each foreskin sample was removed to a fresh dish containing PBS. The epidermis was minced and homogenized prior to incubation in 3 ml of 0.05% Trypsin, 1 mM EDTA for 5 minutes, at room temperature, to separate basal cells from the epidermis. After incubation, 6 ml of 400 μg/ml (micrograms per ml) Soybean Trypsin Inhibitor, 1 mg/ml BSA was added and the samples were centrifuged at 900 RPM. The supernatant from each sample was discarded and the sample pellets were resuspended in 10 ml of KGM. Each sample was split into two 10 cm plates each of which contained 5 ml KGM and 100 μl of HEPES pH 7.3 (N-2-hydroxyethylpiperazine-N′-2-ethane sulfonic acid). The plates were incubated in a 37° C. incubator perfused with 95% room air, 5% carbon dioxide for five days.
Cells were inspected visually using an inverted phase contrast microscope. […] Quantitation of the number of viable keratinocytes as judged by colony formation was quantified for two of the three foreskins.

humans [1] = conditions: around 1000 ppm, more than around 1-2 minutes; cited from earlier work
C. elegans embryos = assay: Viability of nematodes in carbon monoxide based atmospheres; format: in vivo; conditions: for Viability to adulthood: 0.25 kPa O2/CO, 24 hrs
Description: To achieve specific atmospheric conditions the following apparatus was used: a glass syringe barrel having a tip with a locking device such as a LUER-LOK with the large opening of the barrel sealed with a custom-machined steel and rubber fitting to make an airtight seal was locked to via locking device to the inlet port of an environmental chamber having an inlet and an outlet port each fitted with a locking devices such as a LUER-LOK fitting. A defined gas was humidified and provided to the environmental chamber by first venting the gas from a compressed tank (Byrne Specialty Gas, Seattle, Wash.) through a gas washing bottle (500 ml Kimex) filled with double distilled water. The gas washing bottle was connected to the environmental chamber past a gas-flow meter. A gas flow meter was used to provide a regulated 70 cc/min flow through the environmental chamber throughout the 24 hr incubation.
To test whether induced, reversible stasis could be achieved in C. elegans nematodes, 2-cell C. elegans embryos, L3 larvae or adult nematodes were collected and exposed to either an environment of effectively 100% CO, an environment of 100% N2, an environment comprising 500 ppm oxygen balanced with carbon monoxide, or to environments comprising 100, 500 or 1000 ppm oxygen balanced with nitrogen at room temperature. Nematodes were visualized using differential interference contrast microscopy (also known as Nomarski optics). Images were collected and analyzed using NIH image and Adobe Photoshop 5.5. Embryos are approximately 50 μm in length.
Environmental chambers and apparatuses. Oxygen deprivation experiments were carried out using a custom atmospheric chamber designed by W. Van Voorhies (Van Voorhies et al., 2000). The chamber is a 30 mL glass syringe (Fisher #14-825-10B) fitted with a custom steel stopper that is lined with two viton o-rings to ensure a tight seal. The stopper is bored through and has a steel lure lock on the exterior face so that a hose carrying compressed gas can be attached. A defined gas mixture is delivered to the chamber at a constant pressure and flow rate from compressed tanks by passing first through a rotometer (Aalborg, flow-tube number 032-41ST) or mass flow controller (Sierra Instruments #810) to monitor flow rate and then through a 500 ml gas washing bottle (Fisher #K28220-5001) containing 250 ml water to hydrate the gas. ¼″ OD nylon (Cole-Parmer #P-06489-06) or FEP (Cole-Parmer #A-06450-05) tubing was used and connections between tubing and the regulators and between the tubing and the rotometers were made with brass John-Guest-type fittings (Byrne Gas). All other connections were made with either microflow quick-connect fittings (Cole-Parmer #A-06363-57, #A-06363-52) or standard lure fittings (Cole-Parmer #A-06359-37, #A-06359-17).
Viability of nematodes in carbon monoxide based atmospheres. 30-60 embryos were harvested from continuously maintained Bristol N2 and hif-2(ia04) strains as described above. Environmental chambers were continuously perfused at room temperature with pure CO (grade CP) or 500 ppm O2/CO at 70 cc/min for 24 hrs. To achieve 2500 ppm O2/CO or 2500 ppm O2/N2, 5000 ppm O2/N2 was mixed at a 1:1 ratio with either pure CO or pure N2 using two mass flow controllers (Sierra Instruments 810) to precisely monitor flow. Each gas was delivered into a 3-way valve (Cole-Parmer #A-30600-23) at 50 cc/min and the resulting mixture was then passed through a gas washing bottle and into an environmental chamber throughout the 24 hour exposure. All gases were supplied by Byrne Gas (Seattle, Wash.). The 500 ppm O2/CO mixture was certified to 2% of the oxygen content and contained 7000 ppm N2 to ensure a consistent O2/CO ratio throughout the use of the tank.
Cell biological analysis. […]

mice [2] = conditions: SHIRPA tests before and after exposure
humans [3] = conditions: cited from earlier work
mice [4] = conditions: 80 ppm, cited from earlier work
mice [5] = assay: Core body temperature, heart rate and movement of mice exposed to H2S (telemetry); format: in vivo, mouse
Description: Implantation of telemetry devices.
(§1) Exposure of Mice to Regulated Atmosphere.
Regulation of Ambient Temperature. […] Mice were exposed to regulated atmosphere as described above.

rats = conditions: cited from earlier work
mice [6] = assay: Respirometry of mice exposed to H2S; format: in vivo, mouse
Method: as §1
Measurements were over a period of 15 minutes, with the mice in a 0.5 L sealed environmental chamber with flow rates of 500 cc/min. Consumption of oxygen is obtained by subtracting the oxygen concentration when the mouse is present, from the control when the mouse is absent. Likewise, production of carbon dioxide is obtained by subtracting the carbon dioxide concentration when the mouse is present from the control when the mouse is absent. RQ stands for respiratory quotient, and is equal to the ratio of carbon dioxide produced to oxygen […]. […] The change in the respiratory quotient reflects the disparity oxygen consumption and carbon dioxide production by the mice in the presence or absence of the H2S.

[7] = warming phase after 80 ppm, cabinet 10.5° C.
[8] = 80 ppm, 15 minutes, 0.5 L chamber, 500 cc/min

Compound: [C-]#[O+] [CO, Carbon monoxide]
- skin cell survival in CO versus room air (human keratinocytes; 100% CO, 24 hrs, human skin): 100 fold
- Total colonies (human keratinocytes; Foreskin 1, 100% CO 24 hr): 542 colonies (many of which
- Total colonies (human keratinocytes; Foreskin 2, 100% CO 24 hr): 780 colonies (many of which
- growth of keratinocyte populations (human keratinocytes; foreskin 24 hr in 100% CO at room temperature, then five days culture, three foreskins): significant growth
- lethality (humans [1]): can expire
- embryogenesis during exposure (C. elegans embryos; 0.05 kPa O2 balanced with carbon monoxide): arrested embryogenesis
- Viability to adulthood (C. elegans embryos; hif-1(ia04) embryos): 83.9% ± 13.8
- Viability to adulthood (C. elegans embryos; wild-type (N2 strain) embryos): 78.7%
- lethality and suspended animation (C. elegans embryos; 100% carbon monoxide, 24 hr, room temperature, nematodes): not lethal and induced reversible suspended animation
- progression through embryogenesis during exposure (C. elegans embryos; 101 kPa CO): did not progress through embryogenesis
- suspended animation and survival (C. elegans embryos; 500 ppm oxygen balanced with carbon monoxide, 24 hr): entered into suspended animation and survived

Compound: S [H2S, Hydrogen sulfide]
- behavioral differences after gas exposure (mice [2]): no detectable behavioral differences
- acute effect of a single breath (humans [3]; atmosphere with 0.1% hydrogen sulfide): immediately collapse
- OSHA limit for humans (humans [3]): 10 ppm
- acute effect of exposure (humans [3]; extreme levels (500 ppm)): sudden collapse and unconsciousness
- adverse effects incl. gross and histopathological examination (mice [4]; 6 hrs per day, 5 days per week, 90 days): no observed adverse effect
- tolerability (mice [4]; exposures lasting up to ten weeks): innocuous
- core temperature (mice [5]; 80 ppm, 90 min, incubator lowered to 18° C., first mouse): 28.6 °C
- heart rate (mice [5]; 80 ppm, 3 hrs, dropped from 600 bpm): 250 bpm
- core temperature (mice [5]; 80 ppm, 3 hrs, incubator 18° C., second mouse): 18.6 °C
- recovery after rewarming in room air (mice [5]; 80 ppm, 6 hrs, seven mice): successfully recovered
- lowest average core body temperature (mice [5]; 80 ppm, 6 hrs, seven mice, ambient temperature 13° C.): 15 °C
- lowest core body temperature recorded (mice [5]; 80 ppm, ambient dropped to less than 10° C. (FIG. 7)): 10.7 °C
- time to recover activity after removal from gassing chamber (mice [5]; 80 ppm, cabinet 10° C., non-telemetry mouse): approximately 90 min
- core temperature (estimation from slope of the drop) (mice [5]; 80 ppm, cabinet 10° C., telemetry mouse, electronics failed at 15.3° C.): approximately 12.5 °C
- core body temperature (mice [5]; 80 ppm, cabinet 10.5° C., approximately six hours): 10.5 °C
- time to return to normal range of core temperature and activity (mice [5]; after 90 min at 80 ppm, chamber perfused with room air): ≤ 60 min
- behavior of the animals after exposure (mice [5]; maintained for 4 weeks after 6 hr at 80 ppm, 15° C.): no apparent change in the behavior
- core body temperature at which normal movement and respiration were fully apparent (mice [5]; [7]): 25 °C
- core body temperature at which weak respiration was observed (mice [5]; [7]): 14 °C
- perinatal neurotoxicity (rats; 20 or 50 ppm, 7 hours per day, gestation through post-natal day 21, rats): longer dendritic branches with reduced aborization of cerebellar Purkinje cells
- adverse effects incl. gross and histopathological examination (rats; 80 ppm, 6 hrs per day, 5 days per week, 90 days, rats): no observed adverse effect
- perinatal study, neuropathology and behavior of rat pups (rats; 80 ppm): no neuropathological effects
- discriminated avoidance responses (rats; moderate levels, immediately after end of exposure, rats): inhibits discriminated avoidance responses
- radial arm maze learning (rats; moderate levels, rats): interferes with the ability of rats to learn a baited radial arm maze task
- decrease in CO2 production (mice [6]; 80 ppm (FIG. 4A)): approximately 3 fold
- time to decrease in CO2 production / new baseline (mice [6]; 80 ppm (FIG. 4A)): approximately 5 minutes
- drop in carbon dioxide production (mice [6]; [8]): 3-4 fold
- drop in oxygen consumption (mice [6]; [8]): 2-3 fold
- decrease in cellular respiration (mice [6]; 80 ppm, core temperature 15° C.): 1-20 fold
- RQ (mice [6]; H2S present (80 ppm)): 0.58
- Consumption of oxygen (mice [6]; H2S present (80 ppm), control minus mouse present): 1300 ppm
- [CO2] ppm (mice [6]; mouse present, H2S present (80 ppm)): 750 ppm
